From paper PMC4291223, “Inhibitors of CLK Protein Kinases Suppress Cell Growth and Induce Apoptosis by Modulating Pre-mRNA Splicing” (PLoS ONE, 2015)

What was measured:
[1] = tested on: S6K pre-mRNA splicing in HCT-116 cells; assay: S6K pre-mRNA splicing alteration (quantitative RT-PCR), HCT-116; format: cell-based, human; conditions: ratio of S6K exons 6–8 to exons 6–7 is 0.1
Source text: (§1) To examine whether inhibition of a particular CLK and/or SRPK contributed to the alternative splicing of S6K pre-mRNA, we used an additional series of compounds with the same scaffold as Cpd-1, Cpd-2, and Cpd-3, but different selectivity. First, we examined the correlation between the enzymatic activity and the level of splicing alterations of S6K pre-mRNA for the individual compounds. We used the exon 7-skipped type of S6K variant to calibrate Rc0.1 values, i.e., the concentrations that induced 10% of the copy number of an alternative isoform compared with that of the canonical isoform. The inhibition of CLK1 and CLK2 activities was correlated with the splicing alteration activities (Rc0.1) (R^2 = 0.3353 and 0.4255, respectively). In contrast, there was no correlation between the activities of SRPKs and the Rc0.1 values (R^2 < 0.0468) (Fig. 3A). Next, we compared the levels of splicing alteration and growth inhibition of the compounds. […] Similar correlations between Rc0.1 and GI50 values were also obtained in seven different cancer cell lines after treatment with Cpd-2 or Cpd-3 (Table 2).
(§2) Total RNA was extracted using an RNeasy Miniprep Kit (Qiagen, Valencia, CA) in accordance with the manufacturer’s instructions. Reverse transcription was performed using a TaqMan Reverse Transcription Reagents Kit (Applied Biosystems, Carlsbad, CA). The PCR conditions were as follows: one cycle of 5 min at 95°C; 35 cycles of 30 s at 94°C, 30 s at 60°C, and 30 s at 72°C; and one cycle of 10 min at 72°C. The PCR products were separated in 2% agarose gels. Real-time PCR was performed using a TaqMan MGB probe (Applied Biosystems), and the amount of FAM fluorescence was measured as a function of the PCR cycle number (CT) using an ABI 7900 Real-time PCR System (Applied Biosystems). The expression level of each mRNA was normalized by that of GAPDH mRNA.

[2] = tested on: S6K pre-mRNA splicing in COLO205 cells; assay: S6K pre-mRNA splicing alteration (quantitative RT-PCR), COLO205; format: cell-based, human; conditions: ratio of S6K exons 6–8 to exons 6–7 is 0.1
Source text: as §1, §2

[3] = tested on: S6K pre-mRNA splicing in COLO320DM cells; assay: S6K pre-mRNA splicing alteration (quantitative RT-PCR), COLO320DM; format: cell-based, human; conditions: ratio of S6K exons 6–8 to exons 6–7 is 0.1
Source text: as §1, §2

[4] = tested on: S6K pre-mRNA splicing in NCI-H23 cells; assay: S6K pre-mRNA splicing alteration (quantitative RT-PCR), NCI-H23; format: cell-based, human; conditions: ratio of S6K exons 6–8 to exons 6–7 is 0.1
Source text: as §1, §2

[5] = tested on: S6K pre-mRNA splicing in MDA-MB-468 cells; assay: S6K pre-mRNA splicing alteration (quantitative RT-PCR), MDA-MB-468; format: cell-based, human; conditions: for Rc0.1: MDA-MB-468, concentration at which ratio of copy number of S6K exons 6–8 to S6K exons 6–7 is 0.1; for concentration at which expression level of the alternatively spliced S6K mRNAs was highest: MDA-MB-468, 6 h, S6K exons 6–8 (exon 7 skipped)
Source text: as §1, §2

[6] = molecular target: T1, SRPK1 (Homo sapiens, UniProt Q96SB4); assay: In vitro kinase assay (ADP-Glo), SRPK1; format: biochemical; conditions: 5 µM ATP
T1 construct: Full-length human recombinant SRPK1 with a FLAG tag linked to the N-terminus (FLAG-hSRPK1); FLAG (N); made in house; host or cells: Sf9 cells (baculovirus, Bac-to-Bac)
Method: Full-length human recombinant SRPK1 with a FLAG tag linked to the N-terminus (FLAG-hSRPK1) was prepared using a baculovirus expression system. The recombinant baculovirus used to express FLAG-hSRPK1 was constructed according to the protocol provided with the Bac-to-Bac Baculovirus Expression System (Invitrogen, Carlsbad, CA). Sf9 cells were infected with the amplified recombinant baculovirus, cultured at 27°C for 3 days, harvested, and stored at −80°C. The frozen cells were suspended in lysis buffer [50 mM Tris-HCl pH 7.5, 150 mM NaCl, 10% (w/v) glycerol, 1 mM DTT, and complete protease inhibitor cocktail (Roche, Basel, Switzerland)], sonicated for 1 min, and centrifuged at 15,000 × g for 30 min. The soluble fraction was applied to an anti-FLAG M2 affinity gel (Sigma-Aldrich, St. Louis, MO), and FLAG-hSRPK1 was eluted with elution buffer [50 mM Tris-HCl pH 7.5, 10% (w/v) glycerol, 1 mM DTT, and 0.1 mg/mL FLAG peptide]. FLAG-hSRPK1 was further purified by anion exchange chromatography (MonoQ 5/50 GL; GE Healthcare, Piscataway, NJ) and gel filtration chromatography (HiLoad 26/60 Superdex 200 pg; GE Healthcare). Protein concentration was measured using BCA protein assay reagents (Thermo Scientific, Pittsburgh, PA). CLK1 and CLK2 were purchased from Life Technologies (Carlsbad, CA) and SRPK2 and SRPK3 were obtained from Millipore (Billerica, MA).
The ATP concentration for each assay was adjusted to the Km for each kinase. […] ADP was detected using a kinase detection reagent (Promega). The kinase activity of CLK2 was measured using the LANCE® Ultra assay (Perkin-Elmer, Waltham, MA) with ADP-Glo assay buffer. […] The enzyme reactions were terminated by adding 30 mM EDTA, and phosphorylated ULight-MBP peptides were detected using a europium-labeled anti-phospho-MBP antibody diluted with detection buffer (Perkin-Elmer). The plates were read using an EnVision 2102 multilabel reader (Perkin-Elmer). We defined the absorbance of the reaction without enzyme as 100% inhibitory activity and that of the complete reaction mixture as 0% inhibitory activity. […]

T1 sequence (Q96SB4 whole entry): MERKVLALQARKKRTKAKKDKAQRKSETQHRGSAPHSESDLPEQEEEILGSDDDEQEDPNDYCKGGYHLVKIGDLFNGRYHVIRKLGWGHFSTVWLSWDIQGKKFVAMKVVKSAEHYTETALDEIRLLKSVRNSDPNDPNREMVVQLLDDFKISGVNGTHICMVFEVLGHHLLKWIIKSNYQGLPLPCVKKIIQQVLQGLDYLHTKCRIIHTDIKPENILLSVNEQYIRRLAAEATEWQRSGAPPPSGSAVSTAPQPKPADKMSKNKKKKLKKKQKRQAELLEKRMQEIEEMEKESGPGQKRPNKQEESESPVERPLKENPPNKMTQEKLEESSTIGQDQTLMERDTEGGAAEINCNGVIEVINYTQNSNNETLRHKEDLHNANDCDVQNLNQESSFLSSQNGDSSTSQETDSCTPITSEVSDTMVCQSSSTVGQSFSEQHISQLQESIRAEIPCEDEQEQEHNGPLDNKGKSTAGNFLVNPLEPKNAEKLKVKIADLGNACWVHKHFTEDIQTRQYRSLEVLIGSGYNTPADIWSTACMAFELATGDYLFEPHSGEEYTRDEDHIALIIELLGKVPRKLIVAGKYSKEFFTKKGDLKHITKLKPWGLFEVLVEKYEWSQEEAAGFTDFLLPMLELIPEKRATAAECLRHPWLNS

Row | IC50 [6] [nM] | Compound | Rc0.1 [1] [µM] | Rc0.1 [2] [µM] | Rc0.1 [3] [µM] | Rc0.1 [4] [µM] | Rc0.1 [5] [µM] | concentration at which expression level of the alternatively spliced S6K mRNAs was highest [5] [µM]
1 | 61 | CC(C)(CCc1nnn[nH]1)c1ccc(C(=O)Nc2cn3cc(C(F)(F)F)ccc3n2)cc1 [Cpd-1, 4-(2-methyl-4-(1H-tetrazol-5-yl)butan-2-yl)-N-(6-(trifluoromethyl)imidazo[1,2-a]pyridin-2-yl)benzamide] | >10 | >10 | >10 | >10 | 8.6 | –
2 | 200 | CC(C)(C)c1ccc(C(=O)Nc2cn3cc(-c4cn[nH]c4)ccc3n2)cn1 [Cpd-2, 6-tert-butyl-N-(6-(1H-pyrazol-4-yl)imidazo[1,2-a]pyridin-2-yl)nicotinamide] | 1.2 | 1.6 | 0.9 | 0.9 | 0.3 | 1.1 to 3.3
3 | 130 | CC(C)(CO)c1ccc(C(=O)Nc2cn3cc(-c4cn[nH]c4)ccc3n2)cc1 [Cpd-3, 4-(1-hydroxy-2-methylpropan-2-yl)-N-(6-(1H-pyrazol-4-yl)imidazo[1,2-a]pyridin-2-yl)benzamide] | 1.9 | 2.6 | 1.1 | 1.1 | 0.5 | 1.1 to 3.3
